# In US7687651B2, “Method for the preparation of trans-or cis-diammoniumdichlorodihydroxoplatinum(IV) and the use thereof in the production of pharmaceutical active substances” (priority 2003, dated 2010):
# Where “and” joins values, the source holds several entries; their conditions need not be identical. Equal entries are not always repeated.
# How the values were obtained:
# Format in all cases: cell-based, human
# [1] = test system: BxPC3 Pancreatic carcinoma; test: Cytotoxic activity of trans-oxoplatin, BxPC3
# Protocol: (§1) trans-Oxoplatin was tested on a panel of cell lines, using double steps and an initial concentration of 40 μg/ml. As the IC50 values were not reached in most cases, cell survival at the highest concentration is indicated.
# SW620 Colon carcinoma = test: Cytotoxic activity of trans-oxoplatin, SW620; conditions: SW 620 colon carcinoma cell line
# Protocol: as §1
# U-87-MG Astrocytoma = test: Cytotoxic activity of trans-oxoplatin, U-87-MG
# Protocol: as §1
# HL-60 Leukemia = test: Cytotoxic activity of trans-oxoplatin, HL-60
# Protocol: as §1
# HOS Osteosarcoma [2] = test: Cytotoxic activity of trans-oxoplatin, HOS
# Protocol: as §1
# Panc1 Pancreatic cancer [3] = test: Cytotoxic activity of trans-oxoplatin, PANC1
# Protocol: as §1
# MDA-MB-231 Breast cancer = test: Cytotoxic activity of trans-oxoplatin, MDA-MB-231; conditions: several values given
# Protocol: as §1
# COLO 205 Colon carcinoma = test: Cytotoxic activity of trans-oxoplatin, COLO 205
# Protocol: as §1
# K562 Leukemia = test: Cytotoxic activity of trans-oxoplatin, K562
# Protocol: as §1
# [4] = test system: MiaPaCa2 Pancreatic cancer; test: Cytotoxic activity of trans-oxoplatin, MIAPaCa2; conditions: several values given
# Protocol: as §1
# Fib3 Fibroblasts = test: Cytotoxic activity of trans-oxoplatin, Fib3
# Protocol: as §1
# G-292 Osteosarcoma = test: Cytotoxic activity of trans-oxoplatin, G-292; conditions: G-292 osteosarcoma cell line
# Protocol: as §1
# [5] = test system: WI-38 Embryonic lung fibroblasts; test: Cytotoxic activity of trans-oxoplatin, WI-38
# Protocol: as §1
# T-47D breast cancer = test: Cytotoxic activity of trans-oxoplatin, T-47D
# Protocol: as §1
# ACHN Renal carcinoma = test: Cytotoxic activity of trans-oxoplatin, ACHN
# Protocol: as §1
# HCT-15 Colon carcinoma [6] = test: Cytotoxic activity of trans-oxoplatin, HCT-15
# Protocol: as §1
# ASTRO Astrocytoma = test: Cytotoxic activity of trans-oxoplatin, ASTRO
# Protocol: as §1
# CRO1A Carcinoid = test: Cytotoxic activity of trans-oxoplatin, CRO1A; conditions: several values given
# Protocol: as §1
# LAN5 (NB) = test: Effect on cell lines of typical tumors in children, LAN5; conditions: Table 3
# Excerpt: (§2) What is seen primarily in children are leukemias, neuroblastomas and Ewing's sarcoma/peripheral neuroectodermal tumors (group of the Ewing family of tumors=EFT). The investigated tumor cell lines include three EFTs (EW-7, SIM and KAL), as well as two neuroblastoma cell lines (NB: LAN1 and LAN5; Los Angeles neuroblastoma=LAN) (see Table 3).
# PC3 Prostate = test: Growth inhibition test on PC3 cells; conditions: for % Survival: PC3 cells; for IC50: PC3 Prostate
# Protocol: (§3) Growth inhibition tests on various human cell lines show the different activities of cisplatin, cis-oxoplatin and oxaliplatin. […] The following Table illustrates the results produced with cisplatin, oxoplatin, carboplatin and oxaliplatin (the values specified are IC50 values in μg/ml, i.e., the concentration where 50% of the cells survive, nd=not determined; res=resistant=non-sensitive or IC50 value cannot be determined at a concentration of up to 40 μg/ml; IC=inhibition concentration).
# SK-OV4 Ovarian cancer = test: Growth inhibition test on SK-OV4 cells; conditions: Table 2; SK-OV4 Ovarian cancer
# Protocol: as §3
# A498 Renal cells = test: Growth inhibition test on A498 cells; conditions: Table 1
# Protocol: as §3
# M607 Melanoma = test: Growth inhibition test on M607 cells; conditions: Table 1
# Protocol: as §3
# HCT-15 Colon carcinoma [7] = test: Growth inhibition test on HCT-15 cells; conditions: Table 1
# Protocol: as §3
# EW-7 (EFT) = test: Effect on cell lines of typical tumors in children, EW-7; conditions: Table 3
# Excerpt: as §2
# SIM Sarcoma = test: Growth inhibition test on SIM cells
# Protocol: as §3, §2
# JVSO Melanoma = test: Growth inhibition test on JVSO cells; conditions: Table 1
# Protocol: as §3
# MCF-7 Breast cancer = test: Growth inhibition test on MCF-7 cells; conditions: Table 1
# Protocol: as §3
# T47D Breast cancer = test: Growth inhibition test on T47D cells
# Protocol: (§4) The effect of cis-oxoplatin Ca and cis-oxoplatin was compared on 10 cell lines (Table 4).
# (§5) (IC50 values specified in μg/ml; the test was performed as a formazan test).
# BT20 Breast = test: Formazan test on BT20 cells; conditions: Table 4
# Protocol: as §4, §5
# CRO2B Carcinoid = test: Growth inhibition test on CRO2B cells; conditions: CRO2B Carcinoid
# Protocol: as §4, §5
# Du145 Prostate = test: Growth inhibition test on Du145 cells; conditions: Du145 Prostate
# Protocol: as §4, §5
# CaCo-2 Colon = test: Growth inhibition test on CaCo-2 cells; conditions: CaCo-2 Colon
# Protocol: as §4, §5
# Colo205 Colon carcinoma = test: Growth inhibition test on Colo205 cells
# Protocol: as §4, §5
# LAN1 (NB) = test: Effect on cell lines of typical tumors in children, LAN1; conditions: Table 3
# Excerpt: as §2
# M518 Melanoma = test: Growth inhibition test on M518 cells; conditions: Table 1
# Protocol: as §3
# U 373 MG Astrocytoma = test: Growth inhibition test on U 373 MG cells; conditions: Table 2
# Protocol: as §3
# HOS Osteosarcoma [8] = test: Growth inhibition test on HOS cells; conditions: Table 1
# Protocol: as §3
# C320DM Colon carcinoma = test: Growth inhibition test on C320DM cells; conditions: Table 1
# Protocol: as §3
# [9] = test system: HT29, SW480, SK-OV4, PC3, SIM, CaCO-2, DU145 and CRO2B cells; test: Growth inhibition, IC50 over eight cell lines of Table 2; conditions: CaCO-2, DU145, CRO2B
# Protocol: as §3
# The activities differ according to the cell line.
# SaOS Osteosarcoma = test: Growth inhibition test on SaOS cells; conditions: Table 1
# Protocol: as §3
# [10] = test system: MiaPaCa2 Pancreatic cancer; test: Growth inhibition test on MiaPaCa2 cells; conditions: Table 1
# Protocol: as §3
# MDA-MB-435 Breast = test: Formazan test on MDA-MB-435 cells; conditions: Table 4
# Protocol: as §4, §5
# SK-OV3 Ovarian cancer = test: Growth inhibition test on SK-OV3 cells; conditions: Table 2
# Protocol: as §3
# BxPC3 Pancreatic cancer = test: Growth inhibition test on BxPC3 cells
# Protocol: as §4, §5
# Me128 Melanoma = test: Growth inhibition test on Me128 cells; conditions: Table 1
# Protocol: as §3
# HCT8 Colon carcinoma = test: Growth inhibition test on HCT8 cells; conditions: Table 1
# Protocol: as §3
# SW480 Colon = test: Growth inhibition test on SW480 cells; conditions: SW480 Colon
# Protocol: as §4, §5
# Panc1 Pancreatic cancer [11] = test: Growth inhibition test on Panc1 cells; conditions: Table 1
# Protocol: as §3
# CC1227 Colon carcinoma = test: Growth inhibition test on CC1227 cells; conditions: Table 1
# Protocol: as §3
# HT29 Colon carcinoma = test: Growth inhibition test on HT29 cells
# Protocol: as §4, §5
# 10 cell lines (Table 4) = test: Formazan test, IC50 mean value for all cell lines of Table 4; conditions: mean over the 10 cell lines of Table 4
# Protocol: as §4, §5
smiles,measurement,setting,value
"[NH2][Pt]([NH2])([OH])([OH])([Cl])[Cl] [TRAXO, trans-Oxoplatin]",sensitivity of the cell line,[1],non-sensitive
same,% Survival with 40 μg/ml TRAXO,[1]; 40 μg/ml,106%
same,activity against the cell line,SW620 Colon carcinoma,considerable activity
same,% Survival with 40 μg/ml TRAXO,U-87-MG Astrocytoma,100%
same,% Survival with 40 μg/ml TRAXO,"HL-60 Leukemia; HL-60, 40 μg/ml",0.5%
same,activity against the cell line,HL-60 Leukemia; HL-60 leukemia cell line,considerable activity
same,activity against the cell line,HOS Osteosarcoma [2]; HOS osteosarcoma cell line,considerable activity
same,% Survival with 40 μg/ml TRAXO,"HOS Osteosarcoma [2]; HOS, 40 μg/ml",4.3%
same,% Survival with 40 μg/ml TRAXO,Panc1 Pancreatic cancer [3],100%
same,% Survival with 40 μg/ml TRAXO,MDA-MB-231 Breast cancer,70% and 103% and 106%
same,% Survival with 40 μg/ml TRAXO,COLO 205 Colon carcinoma,109%
same,% Survival with 40 μg/ml TRAXO,K562 Leukemia,97%
same,% Survival with 40 μg/ml TRAXO,[4],92% and 83%
same,% Survival with 40 μg/ml TRAXO,Fib3 Fibroblasts,91%
same,activity against the cell line,G-292 Osteosarcoma,considerable activity
same,% Survival with 40 μg/ml TRAXO,"[5]; WI-38, 40 μg/ml",21%
same,activity against the cell line,[5]; WI-38 embryonic pulmonary fibroblast cell line,considerable activity
same,sensitivity of the cell line,T-47D breast cancer,non-sensitive
same,% Survival with 40 μg/ml TRAXO,T-47D breast cancer; 40 μg/ml,101%
same,activity against the cell line,ACHN Renal carcinoma; ACHN renal carcinoma cell line,considerable activity
same,% Survival with 40 μg/ml TRAXO,"ACHN Renal carcinoma; ACHN, 40 μg/ml",48%
same,% Survival with 40 μg/ml TRAXO,HCT-15 Colon carcinoma [6],100%
same,% Survival with TRAXO (20 μg/ml indicated),ASTRO Astrocytoma; 20 μg/ml,82%
same,% Survival with 40 μg/ml TRAXO,ASTRO Astrocytoma; 40 μg/ml,71%
same,% Survival with 40 μg/ml TRAXO,CRO1A Carcinoid,87% and 104% and 70%
"N.N.[Cl-].[Cl-].[OH-].[OH-].[Pt+4] [cis-Oxoplatin, cis-diammoniumdichlorodihydroxoplatinum(IV)]",IC50,LAN5 (NB),3.5 µg/mL
same,% Survival,PC3 Prostate; Conc. 5 μg/ml,105.2 ± 10.8%
same,% Survival,PC3 Prostate; Conc. 10 μg/ml,87.4 ± 11.8%
same,% Survival,PC3 Prostate; Conc. 20 μg/ml,56.7 ± 6.3%
same,% Survival,PC3 Prostate; Conc. 40 μg/ml,15.8 ± 2.7%
same,IC50,PC3 Prostate; Table 1,7.5 µg/mL
same,IC50,PC3 Prostate; Table 2,7.5 µg/mL
same,IC50,SK-OV4 Ovarian cancer,16.2 µg/mL
same,IC50,A498 Renal cells,20 µg/mL
same,IC50,M607 Melanoma,5 µg/mL
same,IC50,HCT-15 Colon carcinoma [7],20 µg/mL
same,IC50,EW-7 (EFT),1.25 µg/mL
same,IC50,"SIM Sarcoma; Table 2, SIM Sarcoma",15.2 µg/mL
same,IC50,"SIM Sarcoma; Table 3, SIM (EFT)",14 µg/mL
same,IC50,JVSO Melanoma,10 µg/mL
same,IC50,MCF-7 Breast cancer,5.5 µg/mL
same,IC50,"T47D Breast cancer; Table 1, T47D Breast cancer",2.5 µg/mL
same,IC50,"T47D Breast cancer; Table 2, T47D Breast cancer",3 µg/mL
same,IC50,"T47D Breast cancer; Table 4, T47D Breast, formazan test",2.5 µg/mL
same,IC50,BT20 Breast,3.75 µg/mL
same,IC50,CRO2B Carcinoid; Table 2,3.0 µg/mL
same,IC50,"CRO2B Carcinoid; Table 4, formazan test",3.0 µg/mL
same,IC50,Du145 Prostate; Table 2,19.0 µg/mL
same,IC50,"Du145 Prostate; Table 4, formazan test",19.0 µg/mL
same,IC50,CaCo-2 Colon; Table 2,1.52 µg/mL
same,IC50,"CaCo-2 Colon; Table 4, formazan test",1.52 µg/mL
same,IC50,"Colo205 Colon carcinoma; Table 1, Colo205 Colon carcinoma",res (res=resistant=non-sensitive or IC50 value cannot be determined at a concentration of up to 40 μg/ml)
same,IC50,"Colo205 Colon carcinoma; Table 4, Colo205 Colon, formazan test",29.0 µg/mL
same,IC50,LAN1 (NB),17 µg/mL
same,IC50,M518 Melanoma,res (res=resistant=non-sensitive or IC50 value cannot be determined at a concentration of up to 40 μg/ml)
same,IC50,U 373 MG Astrocytoma,15 µg/mL
same,IC50,HOS Osteosarcoma [8],2.5 µg/mL
same,IC50,C320DM Colon carcinoma,2.5 µg/mL
same,IC50 values of these cells (mean ± spread),[9],10.5 ± 6.4 µg/mL
same,IC50,SaOS Osteosarcoma,5 µg/mL
same,IC50,[10],5 µg/mL
same,IC50,MDA-MB-435 Breast,16.5 µg/mL
same,IC50,SK-OV3 Ovarian cancer,15 µg/mL
same,IC50,"BxPC3 Pancreatic cancer; Table 1, BxPC3 Pancreatic cancer",2.5 µg/mL
same,IC50,"BxPC3 Pancreatic cancer; Table 2, BxPC3 Pancreatic carcinoma",13 µg/mL
same,IC50,"BxPC3 Pancreatic cancer; Table 4, BxPC3 Pancreas, formazan test",26.0 µg/mL
same,IC50,Me128 Melanoma,2.5 µg/mL
same,IC50,HCT8 Colon carcinoma,40 µg/mL
same,IC50,SW480 Colon; Table 2,8.2 µg/mL
same,IC50,"SW480 Colon; Table 4, formazan test",8.2 µg/mL
same,IC50,Panc1 Pancreatic cancer [11],40 µg/mL
same,IC50,CC1227 Colon carcinoma,10 µg/mL
same,IC50,"HT29 Colon carcinoma; Table 1, HT29 Colon carcinoma",20 µg/mL
same,IC50,"HT29 Colon carcinoma; Table 2, HT29 Colon",13.5 µg/mL
same,IC50,"HT29 Colon carcinoma; Table 4, HT29 Colon, formazan test",13.5 µg/mL
same,IC50 (±SEM) mean value for all cell lines,10 cell lines (Table 4),12.3 ± 3.2 µg/mL
